Reference: patent publication US9540391B2, “Isomannide derivatives as inhibitors of soluble epoxide hydrolase” (SANOFI, priority 2013, dated 2017)
pIC50: −log10 of the molar value. Counter-ions that a name gives are not always drawn.

Molecular target: T1, recombinant sEH (Homo sapiens, UniProt P34913)
T1 construct: made in house; host or cells: Sf9 insect cells
T1 sequence (P34913 1-555): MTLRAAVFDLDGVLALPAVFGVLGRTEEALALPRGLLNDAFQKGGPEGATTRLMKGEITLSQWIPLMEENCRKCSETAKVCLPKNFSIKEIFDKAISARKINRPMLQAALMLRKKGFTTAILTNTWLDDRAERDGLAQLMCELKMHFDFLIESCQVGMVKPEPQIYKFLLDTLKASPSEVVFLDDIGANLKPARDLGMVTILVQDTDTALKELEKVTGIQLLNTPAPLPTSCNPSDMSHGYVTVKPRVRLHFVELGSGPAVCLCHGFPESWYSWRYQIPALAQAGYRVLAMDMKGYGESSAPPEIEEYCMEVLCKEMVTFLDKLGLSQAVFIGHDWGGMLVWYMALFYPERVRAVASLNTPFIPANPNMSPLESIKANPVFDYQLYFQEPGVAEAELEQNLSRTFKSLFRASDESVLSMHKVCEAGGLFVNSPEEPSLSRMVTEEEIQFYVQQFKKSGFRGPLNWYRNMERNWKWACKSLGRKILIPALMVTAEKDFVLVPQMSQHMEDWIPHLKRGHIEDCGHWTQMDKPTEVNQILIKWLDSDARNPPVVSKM
Assay: biochemical screening assay for inhibition of soluble epoxide hydrolase (fluorometric, Phome substrate)
In short: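 Human sEH from Sf9 cells (2 nM final) was pre-incubated 15 min at 30 °C with compound (0.0001–10 μM), then reacted 60 min at 30 °C with 5 μM Phome in 25 mM Hepes/0.01% albumin. Fluorescence of released 6-methoxy-2-naphthaldehyde was read before substrate and at end; IC50 from % inhibition.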

pIC50 | Structure (SMILES)
8.52 | O=C(NC1CCCCC1)N[C@H]1CO[C@H]2[C@@H]1OC[C@@H]2Oc1cccc(C(F)(F)F)c1 [Example 125, 1-Cyclohexyl-3-[(3S,3aR,6S,6aS)-6-(3-trifluoromethyl-phenoxy)-hexa-hydro-furo[3,2-b]furan-3-yl]-urea]
8.22 | Cc1ncccc1O[C@H]1CO[C@H]2[C@@H]1OC[C@@H]2NC(=O)NCC1(c2ccccc2)CCCC1 [Example 184, 1-[(3S,3aR,6S,6aS)-6-(2-Methyl-pyridin-3-yloxy)-hexahydro-furo[3,2-b]furan-3-yl]-3-(1-phenyl-cyclopentylmethyl)-urea]
8.15 | O=C(NC1CCCCC1)N[C@H]1CO[C@H]2[C@@H]1OC[C@@H]2Oc1ccc(C(=O)N2CCOCC2)cc1 [Example 120, 1-Cyclohexyl-3-{(3S,3aR,6S,6aS)-6-[4-(morpholine-4-carbonyl)-phenoxy]-hexahydro-furo[3,2-b]furan-3-yl}-urea]
6.47 | N#CC1COC2C(NC(=O)Nc3ccc(OCc4ccccc4)cc3)COC12 (stereo not drawn) [Example 382]
8.70 | Cc1cc(Cl)ncc1O[C@H]1CO[C@H]2[C@@H]1OC[C@@H]2NC(=O)NC1CCCCC1 [Example 66, 1-[(3S,3aR,6S,6aS)-6-(6-Chloro-4-methyl-pyridin-3-yloxy)-hexahydro-furo[3,2-b]furan-3-yl]-3-cyclohexyl-urea]
7.01 | Cc1cccc(CNC(=O)N[C@H]2CO[C@@H]3[C@@H]2OC[C@H]3/C=C\c2ccccc2)c1 [Example 327, 1-(3-Methyl-benzyl)-3-[(3S,3aR,6R)-6-((S)-(Z)-styryl)-hexahydro-furo[3,2-b]furan-3-yl]-urea]
8.00 | Cc1ncccc1OC1COC2C(NC(=O)NC3CC4CCC3(C)C4(C)C)COC12 [Example 231, 1-[(2R,3aS,5S,6S)-6-(2-Methyl-pyridin-3-yloxy)-hexahydro-furo[3,2-b]furan-3-yl]-3-((1R,4R)-1,7,7-trimethyl-bicyclo[2.2.1]hept-2-yl)-urea]
8.40 | N#Cc1ccc(S[C@H]2CO[C@H]3[C@@H]2OC[C@@H]3NC(=O)NC2CCCCC2)nc1 [Example 60, 1-[(3S,3aR,6S,6aS)-6-(5-Cyano-pyridin-2-ylsulfanyl)-hexahydro-furo[3,2-b]furan-3-yl]-3-cyclohexyl-urea]
5.94 | Cc1ncccc1O[C@H]1CO[C@H]2[C@@H]1OC[C@@H]2NC(=O)NC1(c2cccc(F)c2)CCCC1 [Example 229, 1-[1-(3-Fluoro-phenyl)-cyclopentyl]-3-[(3S,3aR,6S,6aS)-6-(2-methyl-pyridin-3-yloxy)-hexahydro-furo[3,2-b]furan-3-yl]-urea]
8.70 | O=C(NC1CCCCC1)N[C@H]1CO[C@H]2[C@@H]1OC[C@@H]2Oc1ccc(F)c(Br)c1 [Example 146, 1-[(3S,3aR,6S,6aS)-6-(3-Bromo-4-fluoro-phenoxy)-hexahydro-furo[3,2-b]furan-3-yl]-3-cyclohexyl-urea]
8.52 | COC(=O)c1ccc2cc(O[C@H]3CO[C@H]4[C@@H]3OC[C@@H]4NC(=O)NC3CCCCC3)ccc2c1 [Example 148, 6-[(3S,3aS,6S,6aR)-6-(3-Cyclohexyl-ureido)-hexahydro-furo[3,2-b]furan-3-yloxy]-naphthalene-2-carboxylic acid methyl ester]
7.77 | Cc1cc(C)cc(NC(=O)N[C@H]2CO[C@H]3[C@H](CCc4ccccc4)CO[C@@H]32)c1 [Example 353, 1-(3,5-Dimethyl-phenyl)-3-[(3S,3aR,6R)-6-((S)-phenethyl)-hexa-hydro-furo[3,2-b]furan-3-yl]-urea]
8.40 | O=C(NC1CCCCC1)N[C@H]1CO[C@H]2[C@@H]1OC[C@@H]2Oc1ccc(F)cc1 [Example 24, 1-Cyclohexyl-3-[(3S,3aR,6S,6aS)-6-(4-fluoro-phenoxy)-hexahydro-furo[3,2-b]furan-3-yl]-urea]
6.83 | O=C(NCc1ccc(F)cc1)N[C@H]1CO[C@@H]2[C@@H]1OC[C@H]2C#Cc1ccccc1 [Example 288, 1-(4-Fluoro-benzyl)-3-[(3S,3aR,6R)-6-((S)-phenylethynyl)-hexahydro-furo[3,2-b]furan-3-yl]-urea]
6.72 | O=C(Nc1ccc(F)cc1)N[C@H]1CO[C@H]2[C@@H]1OC[C@@H]2C#Cc1ccsc1 [Example 306, 1-(4-Fluoro-phenyl)-3-((3S,3aR,6S,6aR)-6-thiophen-3-ylethynyl-hexahydro-furo[3,2-b]furan-3-yl)-urea]
8.30 | Cc1ncccc1O[C@H]1CO[C@H]2[C@@H]1OC[C@@H]2NC(=O)NC1CCC(F)(F)CC1 [Example 89, 1-(4,4-difluoro-cyclohexyl)-3-[(3S,3aR,6S,6aS)-6-(2-methyl-pyridin-3-yloxy)-hexahydro-furo[3,2-b]furan-3-yl]-urea]
8.10 | Cc1ncccc1O[C@H]1CO[C@H]2[C@@H]1OC[C@@H]2NC(=O)NC1CCC(C(C)(C)C)CC1 (stereo partly drawn) [Example 260, 1-(4-tert-Butyl-cyclohexyl)-3-[(3S,3aR,6S,6aS)-6-(2-methyl-pyridin-3-yloxy)-hexahydro-furo[3,2-b]furan-3-yl]-urea]
8.52 | Cc1ncccc1O[C@H]1CO[C@H]2[C@@H]1OC[C@@H]2NC(=O)NC[C@@H]1C[C@@H]2C[C@H]([C@H]1C)C2(C)C [Example 213, 1-[(3S,3aR,6S,6aS)-6-(2-Methyl-pyridin-3-yloxy)-hexahydro-furo[3,2-b]furan-3-yl]-3-((1R,2R,3R,5S)-2,6,6-trimethyl-bicyclo[3.1.1]hept-3-ylmethyl)-urea]
8.70 | Cc1ncccc1O[C@H]1CO[C@H]2[C@@H]1OC[C@@H]2NC(=O)NC1CC2CC1C1CCCC21 (stereo partly drawn) [Example 262, 1-[(3S,3aR,6S,6aS)-6-(2-Methyl-pyridin-3-yloxy)-hexahydro-furo[3,2-b]furan-3-yl]-3-(octahydro-4,7-methano-inden-5-yl)-urea]
6.08 | Cc1ncccc1O[C@H]1CO[C@H]2[C@@H]1OC[C@@H]2NC(=O)NC1CCC(=O)N(C)C1 (stereo partly drawn) [Example 245, 1-(1-Methyl-6-oxo-piperidin-3-yl)-3-[(3S,3aR,6S,6aS)-6-(2-methyl-pyridin-3-yloxy)-hexahydro-furo[3,2-b]furan-3-yl]-urea]
6.50 | Cc1ncccc1O[C@H]1CO[C@H]2[C@@H]1OC[C@@H]2NC(=O)NC1CC(=O)N(C(C)C)C1 (stereo partly drawn) [Example 246, 1-(1-Isopropyl-5-oxo-pyrrolidin-3-yl)-3-[(3S,3aR,6S,6aS)-6-(2-methyl-pyridin-3-yloxy)-hexahydro-furo[3,2-b]furan-3-yl]-urea]
5.46 | Cc1ncccc1O[C@H]1CO[C@H]2[C@@H]1OC[C@@H]2NC(=O)NC1(C#N)CCOCC1 [Example 248, 1-(4-Cyano-tetrahydro-pyran-4-yl)-3-[(3S,3aR,6S,6aS)-6-(2-methyl-pyridin-3-yloxy)-hexahydro-furo[3,2-b]furan-3-yl]-urea]
5.88 | COC1COCCC1NC(=O)N[C@H]1CO[C@H]2[C@@H]1OC[C@@H]2Oc1cccnc1C (stereo partly drawn) [Example 78, 1-(3-methoxy-tetrahydro-pyran-4-yl)-3-[(3S,3aR,6S,6aS)-6-(2-methyl-pyridin-3-yloxy)-hexahydro-furo[3,2-b]furan-3-yl]-urea; hydrochloride]
6.76 | Cc1ncccc1O[C@H]1CO[C@H]2[C@@H]1OC[C@@H]2NC(=O)NC(C)c1c(C)nn(C)c1C (stereo partly drawn) [Example 234, 1-[(3S,3aR,6S,6aS)-6-(2-Methyl-pyridin-3-yloxy)-hexahydro-furo[3,2-b]furan-3-yl]-3-[1-(1,3,5-trimethyl-1H-pyrazol-4-yl)-ethyl]-urea]
7.15 | O=C(Nc1ccc2c(c1)OCO2)N[C@H]1CO[C@H]2[C@@H]1OC[C@@H]2C#Cc1ccccc1 [Example 293, 1-Benzo[1,3]dioxol-5-yl-3-((3S,3aR,6S,6aR)-6-phenylethynyl-hexahydro-furo[3,2-b]furan-3-yl)-urea]
8.70 | O=C(NC1CCCCC1)N[C@H]1CO[C@H]2[C@@H]1OC[C@@H]2Sc1nccs1 [Example 56, 1-Cyclohexyl-3-[(3S,3aR,6S,6aS)-6-(thiazol-2-ylsulfanyl)-hexahydro-furo[3,2-b]furan-3-yl]-urea]
8.70 | O=C(NC1CCCCC1)N[C@H]1CO[C@H]2[C@@H]1OC[C@@H]2Oc1cnc(Cl)c(F)c1 [Example 64, 1-[(3S,3aR,6S,6aS)-6-(6-Chloro-5-fluoro-pyridin-3-yloxy)-hexahydro-furo[3,2-b]furan-3-yl]-3-cyclohexyl-urea]
7.41 | COc1cc(NC(=O)NC2COC3C(CCc4ccsc4)COC23)cc(OC)c1 [Example 361, 1-(3,5-Dimethoxy-phenyl)-3-[(3S,3aR,-6R)-6-((S)-2-thiophen-3-yl-ethyl)-hexahydro-furo[3,2-b]furan-3-yl]-urea]
7.39 | Cc1ncccc1O[C@H]1CO[C@H]2[C@@H]1OC[C@@H]2NC(=O)NCCCn1nc(C(F)(F)F)cc1C [Example 243, 1-[(3S,3aR,6S,6aS)-6-(2-Methyl-pyridin-3-yloxy)-hexahydro-furo[3,2-b]furan-3-yl]-3-[3-(5-methyl-3-tri-fluoromethyl-pyrazol-1-yl)-propyl]-urea]

Structure (SMILES) | pIC50
CCCCOc1ccc(NC(=O)NC2COC3C(C=Cc4ccccc4)COC23)cc1 [Example 320, 1-(4-Butoxy-phenyl)-3-[(3S,3aR,6R)-6-((S)-(Z)-styryl)-hexahydro-furo[3,2-b]furan-3-yl]-urea] | 6.85
